Source: the supplement of paper PMC10307832

Assays:
Assay in all cases: relative viability (nuclei count vs DMSO), 5 days (fraction); higher = more cells survive
[1] = compound: CC1CC(=O)N(C2=CN=C(N=C2N1C3CCCC3)NC4=C(C=C(C=C4)C(=O)NC5CCN(CC5)C)OC)C [NPK76-II-72-1] + Cc1cc(Nc2cc(N3CCN(C)CC3)nc(Sc3ccc(NC(=O)C4CC4)cc3)n2)n[nH]1 [Tozasertib] (partner 0.1 µM)
Method in brief: (§1)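 Relative viability equals treated-well nuclei counts divided by vehicle-well nuclei counts. Counts came from 4× images of lung cancer cell lines grown in 1536-well plates for 5 days after pin-tool dosing on the day after seeding. Dosing used one drug alone or a fixed anchor-drug dose plus five library-drug doses (not always all listed) in √10 steps, and values are medians of duplicate plates.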

BI-2536 + Alpelisib = compound: CC[C@@H]1C(=O)N(C)c2cnc(Nc3ccc(C(=O)NC4CCN(C)CC4)cc3OC)nc2N1C1CCCC1 [BI-2536] + Cc1nc(NC(=O)N2CCC[C@H]2C(N)=O)sc1-c1ccnc(C(C)(C)C(F)(F)F)c1 [Alpelisib] (partner 2 µM)
Method in brief: as §1

NPK76-II-72-1 + AZD7762 = compound: CC1CC(=O)N(C2=CN=C(N=C2N1C3CCCC3)NC4=C(C=C(C=C4)C(=O)NC5CCN(CC5)C)OC)C [NPK76-II-72-1] + NC(=O)Nc1cc(-c2cccc(F)c2)sc1C(=O)N[C@H]1CCCNC1 [AZD7762] (partner 0.2 µM)
Method in brief: as §1

NPK76-II-72-1 + OSI-027 = compound: CC1CC(=O)N(C2=CN=C(N=C2N1C3CCCC3)NC4=C(C=C(C=C4)C(=O)NC5CCN(CC5)C)OC)C [NPK76-II-72-1] + COc1cccc2cc(-c3nc([C@H]4CC[C@H](C(=O)O)CC4)n4ncnc(N)c34)[nH]c12 [OSI-027] (partner 0.5 µM)
Method in brief: as §1

| Cell Line | relative viability ([1]; first compound 0.01 µM) | relative viability ([1]; first compound 0.03162 µM) | relative viability ([1]; first compound 0.1 µM) | relative viability ([1]; first compound 0.3162 µM) | relative viability ([1]; first compound 1 µM) | relative viability (BI-2536 + Alpelisib; first compound 0.01 µM) | relative viability (BI-2536 + Alpelisib; first compound 0.03162 µM) | relative viability (BI-2536 + Alpelisib; first compound 0.1 µM) | relative viability (BI-2536 + Alpelisib; first compound 0.3162 µM) | relative viability (BI-2536 + Alpelisib; first compound 1 µM) | relative viability (NPK76-II-72-1 + AZD7762; first compound 0.01 µM) | relative viability (NPK76-II-72-1 + AZD7762; first compound 0.03162 µM) | relative viability (NPK76-II-72-1 + AZD7762; first compound 0.1 µM) | relative viability (NPK76-II-72-1 + AZD7762; first compound 0.3162 µM) | relative viability (NPK76-II-72-1 + AZD7762; first compound 1 µM) | relative viability (NPK76-II-72-1 + OSI-027; first compound 0.01 µM) | relative viability (NPK76-II-72-1 + OSI-027; first compound 0.03162 µM) | relative viability (NPK76-II-72-1 + OSI-027; first compound 0.1 µM) | relative viability (NPK76-II-72-1 + OSI-027; first compound 0.3162 µM) | relative viability (NPK76-II-72-1 + OSI-027; first compound 1 µM) |
| --- | --- | --- | --- | --- | --- | --- | --- | --- | --- | --- | --- | --- | --- | --- | --- | --- | --- | --- | --- | --- |
| HCC-15 | 0.394 | 0.384 | 0.342 | 0.41 | 0.462 | 0.835 | 0.73 | 0.691 | 0.142 | 0.117 | 1.18 | 1.32 | 0.549 | 1.16 | 1.23 | 0.561 | 0.774 | 0.683 | 0.579 | 0.78 |
| HCC-44 | 0.875 | 1.16 | 0.962 | 0.795 | 1.04 | 0.775 | 0.705 | 0.423 | 0.0667 | 0.0737 | 1.02 | 1.09 | 0.966 | 0.999 | 1.07 | 0.617 | 0.702 | 0.337 | 0.599 | 0.65 |
| HCC-78 | 0.446 | 0.407 | 0.408 | 0.368 | 0.429 | 0.357 | 0.295 | 0.379 | 0.211 | 0.164 | 0.634 | 0.574 | 0.593 | 0.521 | 0.755 | 0.511 | 0.467 | 0.356 | 0.496 | 0.404 |
| NCI-H727 | 0.641 | 0.616 | 0.545 | 0.539 | 0.649 | 0.616 | 0.636 | 0.453 | 0.245 | 0.238 | 0.466 | 0.67 | 0.545 | 0.537 | 0.558 | 0.496 | 0.637 | 0.602 | 0.564 | 0.668 |
| NCI-H2087 | 0.284 | 0.203 | 0.272 | 0.254 | 0.249 | 1.11 | 1.18 | 1.03 | 0.15 | 0.132 | 1.06 | 1.32 | 1.26 | 1.28 | 1.32 | 0.486 | 0.644 | 0.491 | 0.513 | 0.645 |
| BEN | 0.462 | 0.46 | 0.551 | 0.496 | 0.552 | 1.05 | 0.779 | 0.695 | 0.261 | 0.245 | 0.77 | 0.516 | 0.791 | 0.572 | 0.786 | 0.285 | 0.292 | 0.273 | 0.295 | 0.318 |
| LCLC-103H | 0.46 | 0.508 | 0.437 | 0.466 | 0.488 | 1.05 | 0.925 | 0.929 | 0.556 | 0.125 |  | 0.851 | 0.789 | 0.852 | 0.745 | 0.458 | 0.41 | 0.477 | 0.439 | 0.413 |
| EKVX | 0.335 | 0.339 | 0.416 | 0.379 | 0.474 | 0.933 | 0.826 | 0.791 | 0.175 | 0.138 | 0.672 | 0.629 | 0.718 |  | 0.83 | 0.66 | 0.783 | 0.501 | 0.649 | 0.821 |
| LXF-289 | 0.172 | 0.214 | 0.181 | 0.165 | 0.2 | 1.02 | 0.975 | 0.519 | 0.0396 | 0.0625 | 1.07 | 1.12 | 0.992 | 1.1 | 1.08 | 0.704 | 0.849 | 0.684 | 0.763 | 0.783 |
| ABC-1 | 0.185 | 0.179 | 0.172 | 0.21 | 0.155 | 1.08 | 1.13 | 0.732 | 0.296 | 0.3 | 0.73 | 0.726 | 0.719 | 0.536 | 0.72 | 0.422 | 0.418 | 0.343 | 0.458 | 0.492 |
| NCI-H650 | 0.738 | 0.778 | 0.713 | 0.661 | 0.796 | 1.02 | 0.778 | 0.437 | 0.218 | 0.127 | 1.13 | 0.997 | 0.97 | 0.896 | 0.995 | 0.512 | 0.565 | 0.515 | 0.49 | 0.623 |
| NCI-H2085 | 0.802 | 0.79 | 0.812 | 0.825 | 0.855 | 1.01 | 0.863 | 0.601 | 0.234 | 0.307 | 0.923 | 1.02 | 0.891 | 1 | 1.16 | 0.577 | 0.773 | 0.68 | 0.644 | 0.771 |
| NCI-H1793 | 0.34 | 0.377 | 0.36 | 0.263 | 0.369 | 0.785 | 0.639 | 0.469 | 0.204 | 0.165 |  | 0.69 | 0.618 | 0.238 | 0.566 | 0.268 | 0.322 | 0.258 | 0.27 | 0.311 |
| LC-2-ad | 0.469 | 0.491 | 0.436 | 0.404 | 0.493 | 0.521 | 0.348 | 0.0935 | 0.0735 | 0.123 | 0.833 | 0.855 | 0.852 | 0.879 | 0.895 | 0.768 | 0.885 | 0.826 | 0.791 | 0.954 |
| NCI-H1355 | 0.534 | 0.582 | 0.605 | 0.543 | 0.609 | 0.701 | 0.797 | 0.753 | 0.226 | 0.17 | 0.686 | 0.792 | 0.857 | 0.767 | 0.748 | 0.332 | 0.421 | 0.397 | 0.384 | 0.489 |
| H3255 | 0.623 | 0.729 | 0.734 | 0.434 | 0.673 | 0.691 | 0.492 | 0.37 | 0.252 | 0.241 | 0.841 | 0.815 | 0.959 | 0.655 | 0.988 | 0.445 | 0.483 | 0.531 | 0.416 | 0.588 |
